In PubChem BioAssay AID2060894 (Molecular Pharmacology Branch, DTP, NCI, 2025):

Tested on: K12877-001-R-J1-PDC complex spheroid viability
Assay: Anticancer human tumor K12877-001-R-J1-PDC patient-derived lung adenocarcinoma cell line growth inhibition [RAS]
Details: for IC50: curve of first compound; for viability, T/C: stronger effect = lower value; active = viability on the fitted dose curve at most 10% of control; inactive = the rest
Text: RAS pathway inhibitors in Combinations in Complex Spheroids
A high-throughput screen of multi-cell type tumor spheroids was designed to identify active combinations of RAS pathway inhibitors and targeted small molecules. Complex spheroids include a stromal component modeled by human endothelial cells (HUVEC) and fibroblasts modeled by human mesenchymal stem cells (MSCs). The concentration ranges selected for each drug and investigational agent were based upon clinically achievable concentrations if the clinical Cmax of the agent was known.
Compounds. The drugs and investigational agents: abemaciclib (NSC768073), cobimetinib (NSC768068), divarasib (GDC6063, NSC841802), docetaxel (NSC628503), GDC-1971 (RLY-1971, NSC841576), gemcitabine (NSC613327), inavolisib (NSC800729), ipatasertib (NSC767898), KB-0742 (NSC834161), MRTX-1133 (NSC836407), osimertinib (NSC779217), RMC-4630 (NSC839698), RMC-6236 (NSC851965), RMC-6291 (NSC852671), Ro-3306 (NSC812927), sapanisertib (NSC764658), SN-38 (NSC673596), staurosporine (NSC755774), SY5609 (NSC837396), and tovorafenib (DAY101, NSC766906), were obtained from the National Cancer Institute (NCI) Developmental Therapeutics Program Chemical Repository. The FDA-approved anticancer drug set is available from the NCI Developmental Therapeutics Program. […] The stock solutions were prepared in dimethyl sulfoxide (DMSO, Sigma-Aldrich, St. Louis, MO, cat. D2650) at 800-fold the tested concentration and stored at -70 degrees C prior to their use. All drugs and investigational agents were tested over a range starting from a high concentration at or near the clinical Cmax and decreasing in half-log increments. If the clinical Cmax for an agent had not been determined, the highest concentration tested was 10 microM.
Cell Culture. All cells were maintained in an incubator at 37 degrees C and 5% CO2 with 95% humidity. The PDC lines were cultured according to standard operating procedures established by the NCI PDMR. All PDCs were thawed and cultured in Matrigel-coated flasks prepared with a working solution of 1X Ham's F-12 nutrient mix, without supplementation (Invitrogen, Waltham, MA, cat. 11765054), 100 U/mL penicillin-streptomycin (Invitrogen, cat. 15140122), and 2.5% Matrigel (Corning Inc., Corning, NY, cat. 354248) for the first three passages. The 362531-283-R-J2-PDC and 782815-120-R-J1-PDC lines were cultured in 6C/Colon 1B media, which includes advanced DMEM/F-12 (Thermo Fisher Scientific, cat. 12634028), 10 mM HEPES (Thermo Fisher Scientific, cat. 15630080), 1X GlutaMAX supplement (Thermo Fisher Scientific, cat. 35050061), 0.1 mg/mL primocin (InvivoGen, San Diego, CA, cat. ant-pm-2), 10% defined fetal bovine serum, heat inactivated (HyClone Laboratories Inc., Logan, UT, cat. SH30070.03HI), 50% L-WRN conditioned media (ATCC, cat. CRL-3276), 1.25 mM N-Acetyl-L-cysteine (Sigma-Aldrich, cat. A9165), 10 mM nicotinamide (Sigma-Aldrich, cat. N0636), 1X B-27 supplement (Thermo Fisher Scientific, cat. 17504044), 1X N-2 supplement (Thermo Fisher Scientific, cat. 17502048), 50 ng/mL human EGF (Thermo Fisher Scientific, cat. PHG0311), and 10 microM Y-27632 dihydrochloride (Tocris Bioscience, cat. 1254). The K12877-001-R-J1-PDC line was cultured in 6I media, which includes all 6C/Colon 1B media plus 10 ng/mL human FGF-10 (PeproTech, cat. 100-26), 1 ng/mL human FGF-2 (PeproTech, cat. 100-18B), 1 µM prostaglandin E2 (Tocris Bioscience, cat. 2296), […] hydrocortisone (Sigma-Aldrich, cat. H4001), and […] bovine insulin (Sigma-Aldrich, cat. I6634). The K86415-001-R-J1-PDC line was cultured in 6D media, which includes all 6C/Colon 1B media components minus the L-WRN conditioned media. The 485176-168-R4-J1-PDC was cultured in PANC media, which includes all 6C/Colon 1B media plus 100 ng/mL human FGF-10 (PeproTech, cat. 100-26), 500 nM SB-431542 (Selleckchem, cat. S1067), and 10 nM gastrin (Tocris Bioscience, cat. 3006). […]
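Also: spheroids exposed to agents for one week before readout.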

C=CC(=O)Nc1cc(Nc2nccc(-c3cn(C)c4ccccc34)n2)c(OC)cc1N(C)CCN(C)C + C#Cc1c(F)ccc2cc(O)cc(-c3ncc4c(N5CC6CCC(C5)N6)nc(OCC56CCCN5CC(F)C6)nc4c3F)c12
> 1000 nM: IC50 (second compound 0.0316 µM) | IC50 (second compound 0.1 µM) | IC50 (second compound 0.316 µM) | IC50 (second compound 1 µM) | IC50 (second compound 3.16 µM) | IC50 (second compound 10 µM)
inactive: viability, T/C (second compound 0.0316 µM, first compound 0.00316 µM) 95.4% | viability, T/C (second compound 0.0316 µM, first compound 0.01 µM) 107% | viability, T/C (second compound 0.0316 µM, first compound 0.0316 µM) 108% | viability, T/C (second compound 0.0316 µM, first compound 0.1 µM) 106% | viability, T/C (second compound 0.0316 µM, first compound 0.316 µM) 113% | viability, T/C (second compound 0.0316 µM, first compound 1 µM) 94.3% | viability, T/C (second compound 0.1 µM, first compound 0.00316 µM) 108% | viability, T/C (second compound 0.1 µM, first compound 0.01 µM) 102% | viability, T/C (second compound 0.1 µM, first compound 0.0316 µM) 102% | viability, T/C (second compound 0.1 µM, first compound 0.1 µM) 102% | viability, T/C (second compound 0.1 µM, first compound 0.316 µM) 119% | viability, T/C (second compound 0.1 µM, first compound 1 µM) 97.7% | viability, T/C (second compound 0.316 µM, first compound 0.00316 µM) 103% | viability, T/C (second compound 0.316 µM, first compound 0.01 µM) 108% | viability, T/C (second compound 0.316 µM, first compound 0.0316 µM) 106% | viability, T/C (second compound 0.316 µM, first compound 0.1 µM) 106% | viability, T/C (second compound 0.316 µM, first compound 0.316 µM) 108% | viability, T/C (second compound 0.316 µM, first compound 1 µM) 102% | viability, T/C (second compound 1 µM, first compound 0.00316 µM) 105% | viability, T/C (second compound 1 µM, first compound 0.01 µM) 99.4% | viability, T/C (second compound 1 µM, first compound 0.0316 µM) 101% | viability, T/C (second compound 1 µM, first compound 0.1 µM) 115% | viability, T/C (second compound 1 µM, first compound 0.316 µM) 101% | viability, T/C (second compound 1 µM, first compound 1 µM) 95.3% | viability, T/C (second compound 3.16 µM, first compound 0.00316 µM) 107% | viability, T/C (second compound 3.16 µM, first compound 0.01 µM) 100% | viability, T/C (second compound 3.16 µM, first compound 0.0316 µM) 106% | viability, T/C (second compound 3.16 µM, first compound 0.1 µM) 102% | viability, T/C (second compound 3.16 µM, first compound 0.316 µM) 87.5% | viability, T/C (second compound 3.16 µM, first compound 1 µM) 95% | viability, T/C (second compound 10 µM, first compound 0.00316 µM) 106% | viability, T/C (second compound 10 µM, first compound 0.01 µM) 95.1% | viability, T/C (second compound 10 µM, first compound 0.0316 µM) 89.1% | viability, T/C (second compound 10 µM, first compound 0.1 µM) 94% | viability, T/C (second compound 10 µM, first compound 0.316 µM) 81.4% | viability, T/C (second compound 10 µM, first compound 1 µM) 79.2%
